Measurements taken from US20240358672A1, “APPLICATION OF GENISTEIN AND ITS PHOSPHATE ESTER DERIVATIVE AND PHARMACEUTICAL COMPOSITION COMPRISING THE SAME” (National Taiwan University, priority 2023, published 2024).
Where two headings read alike, the source gives them in different places.

What was measured:
C57BL/6J mice [1] = assay: Echocardiographic analysis of mice
Method: FIG. 8A to 8C illustrate the effects of genistein and Δ^9-THC on cardiac contraction in vivo or in vitro experiments according to Example 9. […] After treatment exposure, the contractility, relaxation and peak force of EHT were measured using the Sony imaging platform. FIG. 8B: Same as the former, analysis of heart rate and contraction-relaxation (CR) interval (48 hours). […] Mice were anesthetized with 1%-2% isoflurane, and images were acquired in the parasternal long-axis (PLA) and parasternal short axis (PSA) on a Visualsonic Vevo 2100 platform. The ventricular (LV) dimensions were traced offline, and the ejection fraction (EF) was calculated using Simpson's biplane method of discs.
The inventor used engineered heart tissues (EHTs) composed of hiPSC-ECs and hiPSC-derived cardiomyocytes (hiPSC-CMs) to interrogate the effects of genistein and Δ^9-THC on contractility in vitro.

[2] = tested on: WT hiPSC-ECs and CB1 CRISPRi hiPSC-ECs; assay: TNF-α challenge of WT and CB1 CRISPRi hiPSC-ECs; conditions: 10 ng/ml TNF-α with 10 μM genistein
CB1 receptor = CB1 receptor (Homo sapiens, UniProt P21554); assay: GTPase-Glo assay (in vitro GTPase assay); type: biochemical
mouse thoracic arteries = assay: Wire myograph of isolated mouse thoracic aortas; type: in vivo, C57BL/6J mice
Method: (§1) FIG. 7A: Isometric tension recordings of isolated mice thoracic aortas were performed using a wire myograph. Vascular concentration-dependent relaxation was induced by acetylcholine (ACh) in pre-constricted mouse thoracic arteries. […] FIG. 7C: Luminex analysis of inflammatory cytokines in plasma of C57BL/6J mice treated with vehicle control, Δ^9-THC, or Δ^9-THC plus genistein. […] FIG. 7E: Effect of Δ^9-THC and genistein on NF-κB phosphorylation in mouse thoracic artery. Total cell lysates were prepared, and the expressions of phosphor-NF-κB were analyzed by ELISA (upper left). Superoxide dismutase (SOD) activity of serum from mouse (bottom left). The effect of Δ^9-THC and genistein on NF-κB phosphorylation in mouse thoracic artery tissues (n=5). Total cell lysates were prepared, and the expressions of NF-κB, phosphorylated NF-κB, and β-actin were analyzed by western blot analysis (right panel). FIG. 7F: The levels reduced glutathione (GSH), Oxidized glutathione (GSSG), Total glutathione (T-GSH) and GSH/GSSG in the serum samples of mice were detected. Plasma isolated from C57BL/6J mice (n=5) treated with vehicle control, Δ^9-THC, genistein, or their combination every day for 30 days was analyzed by the glutathione colorimetric assay kit (BioVision, K261).

hiPSC-ECs [3] = assay: qPCR gene expression in hiPSC-ECs; type: cell-based, human; conditions: 48 hours
[4] = In vivo fluorescence imaging (IVIS) biodistribution; conditions: inferred from BODIPY517/547-genistein distribution
Method: High-magnification images of the green-boxed area are shown with the scale bar at 100 mm. […] Total cell lysates were prepared, and the expression of phosphorylated NF-κB and NF-κB was analyzed by western blot analysis. Immunoblots were quantified by ImageJ software (left panel). […] The in vivo fluorescence images were detected by the IVIS Spectrum at indicated time points. All mice were sacrificed at 48 hours, and major organs were collected and then fixed using formalin (left panel). Fluorescence images were quantified using the IVIS imaging system. […] Images of the brain, heart and lung, thoracic aorta, liver, spleen, kidney, intestine, colon, and blood were obtained from mice (n=5) (right panel). Fluorescence images were quantified using the ImageJ software (middle bottom).

C57BL/6J mice [5] = type: in vivo
Method: as §1
Genistein also rescued the oxidative stress protective-related gene expression (FIG. 7D). In addition, NF-κB phosphorylation and SOD expression in mouse serum were also attenuated with genistein (FIG. 7E). Δ^9-THC administration decreased circulating levels of the antioxidant glutathione, which was ameliorated with genistein cotreatment (FIG. 7F).

various organs = conditions: in vivo
C57BL/6J mice [6] = assay: Neurobehavioral tetrad (Billy Martin tetrad) in mice
Method: FIG. 13 illustrate the effect of genistein on the neurobehavioral effects of Δ^9-THC according to Example 12. C57BL/6J mice were exposed to (1) vehicle control (intraperitoneal [i.p.], and oral [p.o.], n=8), (2) Δ^9-THC at 20 mg/kg i.p. and p.o. vehicle (n=9), (3) genistein at 50 mg/kg p.o. and i.p. vehicle (n=8), and (4) combination of Δ^9-THC at 20 mg/kg i.p. and genistein at 50 mg/kg p.o. (n=9). […] Hypothermia was assessed by measuring body temperature using a rectal probe before and 60 min after treatment. The catalepsy test measures the time a mouse remained immobile on the bar. Analgesia was measured by placing mice on a hot plate and recording the time for the mouse to withdraw or lick.
These are described as the Billy Martin tetrad.
Therefore, the neurological effects of Δ^9-THC and genistein co-administration were tested in C57BL/6J mice treated with vehicle, genistein, Δ^9-THC, or in combination. The tetrad effects were assessed using an activity chamber for mobility, a hot plate for analgesia, a rectal probe for hypothermia, and the bar test for […].

HUVECs = assay: qPCR gene expression in HUVECs; conditions: 5 μM Δ^9-THC, 48 hours, normalized to GAPDH
hiPSC-ECs [7] = assay: Monocyte (U937) adhesion assay on hiPSC-ECs; conditions: 5 μM Δ^9-THC alone, 48 hours
hiPSC-ECs [8] = assay: CellTiter-Glo cell viability, hiPSC-ECs; conditions: various concentrations, 24 or 48 hours
hiPSC-ECs [9] = assay: CellROX oxidative stress assay / ROS-Glo H2O2 assay in hiPSC-ECs; conditions: 5 μM Δ^9-THC alone, 48 hours
[10] = tested on: human endothelial cells (HUVECs and HCAECs); assay: CellTiter-Glo cell viability, human endothelial cells; conditions: increasing concentrations of Δ^9-THC, 48 hours
[11] = Plasma concentration by LC-MS analysis; conditions: Δ^9-THC 1 mg/kg
[12] = single agent: Δ^9-THC 1 mg/kg i.p. or genistein 50 mg/kg p.o.
[13] = 10 μM genistein with 5 μM Δ^9-THC

Sequence of CB1 receptor (P21554 whole entry): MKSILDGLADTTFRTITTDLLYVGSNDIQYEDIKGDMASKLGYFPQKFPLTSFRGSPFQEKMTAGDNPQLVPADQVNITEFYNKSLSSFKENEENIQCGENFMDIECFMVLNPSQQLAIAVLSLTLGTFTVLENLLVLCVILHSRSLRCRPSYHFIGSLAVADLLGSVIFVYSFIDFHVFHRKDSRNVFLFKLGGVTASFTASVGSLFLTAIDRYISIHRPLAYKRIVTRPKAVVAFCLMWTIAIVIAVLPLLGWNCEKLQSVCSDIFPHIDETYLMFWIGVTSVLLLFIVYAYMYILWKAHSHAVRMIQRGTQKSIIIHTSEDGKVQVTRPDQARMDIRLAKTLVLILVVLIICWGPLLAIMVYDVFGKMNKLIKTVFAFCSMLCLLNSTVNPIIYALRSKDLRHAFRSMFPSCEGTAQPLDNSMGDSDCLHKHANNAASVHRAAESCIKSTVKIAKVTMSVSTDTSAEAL

Structure (SMILES): O=c1c(-c2ccc(O)cc2)coc2cc(O)cc(O)c12 [genistein]
- cardiac structure or function (EF, HR, LVEDV, LVEDM) (C57BL/6J mice [1]; cotreatment Δ^9-THC 1 mg/kg i.p. and genistein 50 mg/kg p.o.): did not affect cardiac structure or function
- cardiac structure or function (EF, HR, LVEDV, LVEDM) (C57BL/6J mice [1]; [12]): did not affect cardiac structure or function
- expression of ILIA ([2]; CB1 CRISPRi hiPSC-ECs): increased significantly
- TNF-α-increased expression of CXCR8 ([2]; WT hiPSC-ECs): attenuated
- TNF-α-increased expression of IL6 ([2]; WT hiPSC-ECs): attenuated
- expression of ILIA ([2]; WT hiPSC-ECs): decreased
- TNF-α-increased expression of SOD1 ([2]; WT or CB1 CRISPRi hiPSC-ECs): not attenuated
- function at CB1 in in vitro GTPase assay (CB1 receptor): neutral antagonist
- GTP turnover compared with Apo (CB1 receptor; GTPase-Glo assay): same GTP turnover as Apo
- Δ^9-THC-induced endothelial dysfunction (mouse thoracic arteries; Δ^9-THC 1 mg/kg plus genistein 50 mg/kg): mitigated the effect
- NOS2 and NOX1 expression (hiPSC-ECs [3]; [13]): salutatory effect
- Δ^9-THC-induced TLR4 expression (hiPSC-ECs [3]; [13]): disrupted its expression
- blood-brain barrier (BBB) penetration [4]: poor blood-brain barrier (BBB) penetration
- Δ^9-THC-induced mRNA expressions of inflammation-related genes in mouse thoracic artery tissues (C57BL/6J mice [5]; Δ^9-THC 1 mg/kg plus genistein 50 mg/kg or rimonabant 3 mg/kg): ameliorated
- NF-κB phosphorylation in mouse thoracic artery (C57BL/6J mice [5]; Δ^9-THC plus genistein): attenuated
- SOD expression in mouse serum (C57BL/6J mice [5]; Δ^9-THC plus genistein): attenuated
- oxidative stress protective-related gene expression in thoracic artery tissues (C57BL/6J mice [5]; Δ^9-THC plus genistein): rescued
- plasma IL-6, IL-3 and IL-10 (Luminex) (C57BL/6J mice [5]; Δ^9-THC plus genistein cotreatment): significantly reduced
- Δ^9-THC-decreased circulating glutathione (C57BL/6J mice [5]; Δ^9-THC plus genistein cotreatment, every day for 30 days): ameliorated
- toxicity to various organs (various organs): did not exhibit any toxicity to various organs
- tetrad effects (C57BL/6J mice [6]; genistein 50 mg/kg p.o. alone): did not affect tetrad effects
- Δ^9-THC neurobehavioral effects (C57BL/6J mice [6]; Δ^9-THC 20 mg/kg i.p. and genistein 50 mg/kg p.o.): could not attenuate

Structure (SMILES): CCCCCc1cc(O)c2c(c1)OC(C)(C)[C@@H]1CCC(C)=C[C@@H]21 [Δ^9-THC, Δ^9-tetrahydrocannabinol]
- cardiac structure or function (EF, HR, LVEDV, LVEDM) (C57BL/6J mice [1]; [12]): did not affect cardiac structure or function
- endothelial function (ACh-induced relaxation) (mouse thoracic arteries; Δ^9-THC 1 mg/kg): induced endothelial dysfunction
- antioxidant-related gene expression (HUVECs): reduced the antioxidant-related gene expression
- expression of inflammation-related genes (HUVECs): induced the expression of inflammation-related genes
- TLR4 expression (hiPSC-ECs [3]; 5 μM Δ^9-THC alone): induced TLR4 expression
- expression of ROS-related genes NOX1 and NOS2 (hiPSC-ECs [3]; 5 μM Δ^9-THC alone): upregulated
- mRNA expression of antioxidant-related genes (SOD1, SOD2, CAT, GPX1) (hiPSC-ECs [3]; 5 μM Δ^9-THC alone): decreased mRNA expression
- expression of I kappa B (NFKBIA) (hiPSC-ECs [3]; Δ^9-THC alone): inhibited
- expression of proinflammatory cytokines and chemokines (hiPSC-ECs [3]; Δ^9-THC alone): increased
- monocyte adhesion to hiPSC-ECs (hiPSC-ECs [7]): increased adhesion
- cytotoxicity (cell viability) (hiPSC-ECs [8]): induced cytotoxicity
- plasma IL-6, IL-3 and IL-10 (Luminex) (C57BL/6J mice [5]; Δ^9-THC alone): elevated
- circulating levels of the antioxidant glutathione (C57BL/6J mice [5]; Δ^9-THC alone, every day for 30 days): decreased
- cellular oxidative stress (CellROX) (hiPSC-ECs [9]): induced cellular oxidative stress
- cytotoxicity (cell viability) [10]: induced cytotoxicity
- analgesia (hot plate) (C57BL/6J mice [6]; Δ^9-THC 20 mg/kg i.p.): analgesia
- hypothermia (rectal probe) (C57BL/6J mice [6]; Δ^9-THC 20 mg/kg i.p.): hypothermia
- mobility (activity chamber) (C57BL/6J mice [6]; Δ^9-THC 20 mg/kg i.p.): decreased mobility
- sedation (bar test) (C57BL/6J mice [6]; Δ^9-THC 20 mg/kg i.p.): sedation
- plasma concentration [11]: ~100 ng/mL
